Data published in patent US20050209157A1, “Short bioactive peptides and methods for their use” (priority 2001, published 2005).
No end group written: not given here.

Assays:
[1] = tested on: human leukocyte (WBC) cells; assay: Stimulation and proliferation of leukocytes, Alamar Blue; type: cell-based; details: compared to untreated positive control cells; Alamar Blue
[2] = tested on: human red blood cells (RBC); assay: in vitro; type: cell-based; details: hemolytic assay, concentration at 50% hemolysis, 1 hour at 37° C.
[3] = Solubility of peptides in sheep serum; type: physicochemical
Pseudomonas aeruginosa = assay: Serum inactivation of peptides, serum MIC; type: cell-based; details: for MIC 30 min treatment: sheep serum 37° C. 30 minutes; for MIC 2 hr treatment: sheep serum 37° C. 2 hours
Procedure: Subsequently, the serum MICs against Pseudomonas aeruginosa were conducted to determine extent of serum inactivation of the peptides.

Substance | stimulatory and/or inhibitory action on growth of human leukocyte (WBC) cells [1] | LD50 [2] | Solubility ([3]; sheep serum, […], 70% serum) | Solubility ([3]; sheep, 70% sheep serum) [µg/mL] | MIC 30 min treatment (Pseudomonas aeruginosa; first of two columns) [µg/mL] | MIC 30 min treatment (Pseudomonas aeruginosa; second of two columns) [µg/mL] | MIC 2 hr treatment (Pseudomonas aeruginosa; first of two columns) [µg/mL] | MIC 2 hr treatment (Pseudomonas aeruginosa; second of two columns) [µg/mL] | change of activity by exposure to serum (serum MIC against Pseudomonas aeruginosa) (Pseudomonas aeruginosa; sheep serum, […], 37° C. for 30 minutes or 2 hours)
MPKWKVFKKIEKVGRNIRNGIVKAGPAIAVLGEAKALG-NH2 [P12, reference compound] | stimulatory (and/or proliferative) at all concentrations through 500 μg/ml | > (> indicates greater than 1000) | – | – | – | – | – | – | –
FALKALKKLKKALKKAL-NH2 [P153] | – | – | Soluble | ≥ 1280 | 10 | 5 | 20 | 5 | only modestly decreased
